Assay [1] has as its system human SKMCs (HMCL-7304). The assay is described as follows: Growth assay in human SKMCs (crystal violet). Particulars: 12 to 14 days, 10 nM-10 uM. In kind it is cell-based. The method, then: (§1) After the treatment, the cells were fixed in cold methanol for 15 minutes and stained with crystal violet for 10 minutes. Dye excess was washed with water and pictures taken immediately afterwards.

The subject of assay [2] is human SGBS preadipocytes. As to the kind of experiment: Growth assay in human SGBS preadipocytes (crystal violet). In kind it is cell-based. The conditions noted are these: 12 to 14 days, 10 nM-10 uM. How it is done:
as §1

The subject of assay [3] is SGBS cells. The assay is described as follows: Adipogenic differentiation assay (Oil Red O) in SGBS cells. It counts as cell-based, human. Particulars: inhibitor added at day 0 of differentiation, 10 nM-10 uM. The method, then:
For adipogenic differentiation SGBS cells were grown to confluence and subjected to a two-step differentiation process. […] Afterwards, cells were exposed to DMEM/F12 supplemented with 0.01 mg/mL of transferrin, […] of insulin, 100 nM cortisol, and 0.2 nM 3,3′,5-Triiodo-L-thyronine for additional 12 days. HMCL-7304 cells were differentiated in presence of SKMC differentiation medium (PromoCell) for 4-5 days before glucose uptake was performed. […] Differentiation quantification was performed with Oil Red 0. Differentiated SGBS cells were fixed with 10% formalin for 10 minutes at room temperature. After washing with 60% isopropanol, samples were incubated in Oil Red 0 (Sigma-Aldrich) for 10 minutes at room temperature. Oil Red 0 was eluted with 100% isopropanol for 10 minutes. The solution was then transferred into a 96-well plate and absorbance measured at 500nm.

The test system of assay [4] is human adipocytes (differentiated SGBS cells). The assay is described as follows: Insulin mediated glucose uptake assay in mature human adipocytes (differentiated SGBS). In kind it is cell-based. Particulars: 24 hours pretreatment 10 nM-10 uM, 100 nM insulin stimulation. The method, then:
For adipogenic differentiation SGBS cells were grown to confluence and subjected to a two-step differentiation process. […] Afterwards, cells were exposed to DMEM/F12 supplemented with 0.01 mg/mL of transferrin, […] of insulin, 100 nM cortisol, and 0.2 nM 3,3′,5-Triiodo-L-thyronine for additional 12 days. HMCL-7304 cells were differentiated in presence of SKMC differentiation medium (PromoCell) for 4-5 days before glucose uptake was performed. […] After the preincubation, the cells were starved for 2 hours prior to 30 minutes of 100 nM insulin stimulation at 37 degrees. […] The cells were then washed with PBS, harvested in 300 uL of M-PER lysis buffer (ThermoFisher), and then added to scintillation vials containing 4.75 mL of scintillation fluid (Perk Elmer). Radioactive counts were determined with a scintillation counter (Model ID: Beckman LS6500). Excess samples were subjected to BCA assay for protein quantification and normalization of radioactive counts. All samples were represented as fold change compared to the unstimulated (no insulin) condition.

Assay [5] relates to iPSC lines. As to the kind of experiment: HMGCR inhibition in iPSC lines, RNA-seq differential expression. It counts as cell-based, human. The conditions noted are these: 1 uM, 12 h. The method, then: Previous efforts have validated predictive networks through similar approaches.
For the expression residuals used for the co-expression and predictive network analyses, 2 analysis streams were adopted: one where there was use of all samples without adjusting for patient ID (AS) and one where there was an averaging of residuals per patient (ApP). Differentially expressed genes were determined using a linear model, as implemented in the 1mFit function from the limma package v3.18.13 in R. Statistical significance was assessed using a cut-off of 0.05 on FDR adjusted p-values.
iPSCs from 6 IS and 6 IR individuals were maintained in feeder-free conditions using mTesr1 (Stem Cell technologies, Inc) supplemented with 1 mM L-Glutamine, 1 mM Penicillin-Streptomycin, 0.1 μ/ml Fungizone.) on 5% matrigel coated 6-well TC plates. For passaging, cells were washed once with PBS and treated with pre-warmed 1 mM EDTA (Sigma), incubated at 37 degrees for 1-5 minutes, and resuspended in fresh mTesr1 medium 2 μM Thiazovivin (Millipore). After 12 hours incubation in Thiazovivin, medium was changed daily with fresh mTesr1. […] Cells were washed once in PBS and harvested for RNA extraction using PureLInk RNA mini kit (Thermo Fisher Scientific). Total RNA was quantified using a Nanodrop (Thermo Scientific). RNA samples with a A260/280 ratio <1.8 or >2.3 were excluded from further processing and the RNA was sequenced using the Illumina HiSeq 2500 system.

Entries after “also recorded” stand apart in the source; their conditions may differ.

Turning to `NCCCC(O)(P(=O)(O)O)P(=O)(O)O` [alendronate], the “cell proliferation in SKMCs” value in assay [1] is on record as “only a significant effect on glucose uptake”. Further, the preadipocyte growth result in assay [2] is “only HMGCR inhibition demonstrates a detectable decrease”.
On to `CN(C/C=C/C#CC(C)(C)C)Cc1cccc2ccccc12` [terbinafine], for which the “cell proliferation in SKMCs” value in assay [1] is reported as “only a significant effect on glucose uptake”. Besides, in assay [2], the preadipocyte growth entry is reported as “only HMGCR inhibition demonstrates a detectable decrease”. The “differentiation efficiency (adipogenesis, Oil Red O absorbance at 500 nm)” value in assay [3] is given as “only HMGCR inhibition demonstrates a detectable decrease”. For the same compound, the “insulin mediated glucose uptake” value in assay [4] is reported as “decrease insulin mediated glucose uptake”.
For `CC(C)c1c(C(=O)Nc2ccccc2)c(-c2ccccc2)c(-c2ccc(F)cc2)n1CC[C@@H](O)C[C@@H](O)CC(=O)O` [atorvastatin], the “cell proliferation in SKMCs” value in assay [1] is reported as “inhibits; also recorded: affected”. For the same compound, in assay [2], the preadipocyte growth result is recorded as “detectable decrease”. For the same compound, the “number of DE genes, treated vs untreated samples” value worked out at 785 in assay [5] (IR iPSC group only); 711 in assay [5] (IS iPSC group only); 3205 in assay [5] (all iPSC lines (6 IR, 6 IS)).

These data come from patent US20210005278A1, “SYSTEMS AND METHODS FOR PREDICTIVE NETWORK MODELING FOR COMPUTATIONAL SYSTEMS, BIOLOGY AND DRUG TARGET DISCOVERY” (ARIZONA BOARD OF REGENTS ON BEHALF OF THE UNIVERSITY OF …, priority 2018, published 2021).
